The text below walks through data of patent publication US20250195415A1, “BIODEGRADABLE CONTROLLED RELEASE ANTIVIRAL AGENT IMPLANTS” (Yale University, priority 2022, published 2025).

Read-outs that look alike come from different tables or passages of the source. Where only a bound is given, the exact number is not on record here.

Series [1] in a line: In vitro drug release from poly(EB-co-DO) implants with mathematical diffusion model. In kind it is physicochemical. The note with it: for Diffusion Coefficient: 28 % Loading, P4 (37k, 20% DO) implants. On the procedure: Drug-loaded poly(EB-co-DO) implants (1 cm long, 2.4 mm diameter, 50 mg) were individually incubated in 1 mL of PBS solution (pH=7.4) containing 3% methyl-beta-cyclodextrin (M-β-CD) at 37° C. At selected time points, the buffer solution was completely replaced with fresh solution of the same composition. The collected buffer solutions, in which the implant had been continuously and completely bathed for a period of time, were flash frozen and lyophilized. High-performance liquid chromatography (HPLC) was then used to determine the representative drug loading of implants in each group.
The samples were then centrifuged at 3000 rpm for 5 min to draw out any salts and M-β-CD. The supernatant was passed through 0.22 um syringe filters before being analyzed by HPLC for drug content.
An Agilent column (883995-906, ZORBAX StableBond 300 C8, 4.6×150 mm, 5 μm) and Shimadzu HPLC system (LC-2030C) with a UV-Vis detector was used for drug quantitation. […] Initial solvent B concentration was set at 5% and allowed to increase to 100% by the 5th minute. Flow was maintained for 5 min at this level before dropping to 5% after 12 min, which was maintained until the end of the run at 13 minutes. For analysis of DTG drug release, Solvent A was 0.1% TFA in HPLC grade water, and solvent B was 100% methanol. Initial solvent B concentration was set at 55% and increased to 60% for the 6-7th minute before being brought back down to 55% for the 7-10th minute. All three drugs were detected using a UV detector at a wavelength of 240 nm. […] A volume of 45 μl was injected for each sample run.
Fick's second law of diffusion appropriately models drug transport across polymeric matrixes by proportionally relating the diffusion rate at time, t, to the concentration gradient of drug in the implant, ∂C/∂r. As shown in the equation below (1), a one-dimensional, radial release from our cylindrical implants was adopted, with a constant drug diffusion coefficient, D.
The solution for the above partial differential equation requires specification of a set of initial conditions and boundary conditions. For the initial condition (t=0), a homogenous and uniform concentration of drug throughout the implant was adopted, C=C0. A symmetry boundary condition is further applied at the center of the implant (r=0) as flux across the plane of symmetry is zero, ∂C/∂r=0. Lastly, a perfect-sink boundary condition is applied at the surface of implant (r=R), C=0. […] In vitro release, then, is determined from the mass of drug in the implant at each time point subtracted from initial mass of drug within the implant (Co*V). Lastly, the diffusion coefficient is determined by fitting the cumulative drug release profile to data from in vitro drug release experiments and minimizing root mean squared error (RMSE).

For series [2] the following is noted: cited from earlier work.
For series [3] the following is noted: cited from earlier work. This is another data set of the same source.
Series [4] can be described thus: Pharmacokinetic studies for implants and NPs in Hu-PBL mice. The note with it: for concentration at 42 d / concentration at 56 d / AUC(0-t): NSG (NOD.Cg-Prkdcscid Il2rgtm1Wjl/SzJ), Hu-PBL, mouse; for concentration at 42 d / concentration at 56 d: plasma; for concentration at 42 d: intraperitoneal, day 42; for AUC(0-t): serum. In kind it is in vivo. On the procedure:
NOD.Cg-Prkdcscid Il2rgtm1 Wjl/SzJ (NSG) mice were purchased from the Jackson Laboratory (Bar Harbor, ME) and bred and maintained at Yale University (New Haven, CT) according to guidelines established by the Institutional Animal Committee. All experiments were performed according to protocols approved by the Institutional Review Board and the Institutional Animal Care and Use Committee of Yale University. NSG-Hu-PBL mice were engrafted. Briefly, 10×10^6 peripheral blood mononuclear cells (PBMC), purified by Ficoll density gradient centrifugation of healthy donor blood (obtained from the New York Blood Bank) were injected intraperitoneally in a 200 μl volume into 6- to 12-week-old NSG mice (Jackson Laboratory), using a 1 cm^3 syringe and 25-gauge needle. Mice were retro-orbitally bled to collect 70-100 μl of blood.
Two NSG mice were injected intraperitoneally (i.p.) with Compound I-NP (190 mg/kg) and EFdA (10 mg/kg) suspended in sterile saline solution. The blood samples were collected at predetermined time points from the ocular venous plexus by retro-orbital venipuncture and used for subsequent HPLC analysis.
Mice were anesthetized by intraperitoneal injection of ketamine (80 mg/kg) and xylazine (12 mg/kg) in PBS (10 ml/kg) based on individual mouse body weight. After anesthetizing, approximately 1-2 cm square of the dorsal skin was shaved using an electric hair clipper, the area was cleaned with ethanol and disinfected with betadine. Using a sterile disposable surgical blade, an incision of 4-5 mm was made through the skin. Gently, 2 cm×3 cm subcutaneous pockets were created with forceps and implants loaded with EFdA and Compound I were co-inserted at the same site. The opening was sutured using absorbable sutures followed by subcutaneous administration of 0.05 mg/kg buprenorphine. The animals were kept warm using the temperature-controlled heating pads until they regained consciousness. Toxicity was evaluated by clinical observations, eageside observations (twice daily), and body weight (at least weekly).
To determine dose-dependent serum agent concentrations, in vivo pharmacokinetics of Compound I and EFdA implants, and Compound I-NP and EFdA-NP were investigated in Hu-PBL mice. The blood samples were collected at predetermined time points from the ocular venous plexus by retro orbital venipuncture and serum was used for subsequent HPLC analysis.

In series [5] the target is T1, human mitochondrial DNA polymerase (Homo sapiens, UniProt P54098).
T1 sequence (P54098 1-1239): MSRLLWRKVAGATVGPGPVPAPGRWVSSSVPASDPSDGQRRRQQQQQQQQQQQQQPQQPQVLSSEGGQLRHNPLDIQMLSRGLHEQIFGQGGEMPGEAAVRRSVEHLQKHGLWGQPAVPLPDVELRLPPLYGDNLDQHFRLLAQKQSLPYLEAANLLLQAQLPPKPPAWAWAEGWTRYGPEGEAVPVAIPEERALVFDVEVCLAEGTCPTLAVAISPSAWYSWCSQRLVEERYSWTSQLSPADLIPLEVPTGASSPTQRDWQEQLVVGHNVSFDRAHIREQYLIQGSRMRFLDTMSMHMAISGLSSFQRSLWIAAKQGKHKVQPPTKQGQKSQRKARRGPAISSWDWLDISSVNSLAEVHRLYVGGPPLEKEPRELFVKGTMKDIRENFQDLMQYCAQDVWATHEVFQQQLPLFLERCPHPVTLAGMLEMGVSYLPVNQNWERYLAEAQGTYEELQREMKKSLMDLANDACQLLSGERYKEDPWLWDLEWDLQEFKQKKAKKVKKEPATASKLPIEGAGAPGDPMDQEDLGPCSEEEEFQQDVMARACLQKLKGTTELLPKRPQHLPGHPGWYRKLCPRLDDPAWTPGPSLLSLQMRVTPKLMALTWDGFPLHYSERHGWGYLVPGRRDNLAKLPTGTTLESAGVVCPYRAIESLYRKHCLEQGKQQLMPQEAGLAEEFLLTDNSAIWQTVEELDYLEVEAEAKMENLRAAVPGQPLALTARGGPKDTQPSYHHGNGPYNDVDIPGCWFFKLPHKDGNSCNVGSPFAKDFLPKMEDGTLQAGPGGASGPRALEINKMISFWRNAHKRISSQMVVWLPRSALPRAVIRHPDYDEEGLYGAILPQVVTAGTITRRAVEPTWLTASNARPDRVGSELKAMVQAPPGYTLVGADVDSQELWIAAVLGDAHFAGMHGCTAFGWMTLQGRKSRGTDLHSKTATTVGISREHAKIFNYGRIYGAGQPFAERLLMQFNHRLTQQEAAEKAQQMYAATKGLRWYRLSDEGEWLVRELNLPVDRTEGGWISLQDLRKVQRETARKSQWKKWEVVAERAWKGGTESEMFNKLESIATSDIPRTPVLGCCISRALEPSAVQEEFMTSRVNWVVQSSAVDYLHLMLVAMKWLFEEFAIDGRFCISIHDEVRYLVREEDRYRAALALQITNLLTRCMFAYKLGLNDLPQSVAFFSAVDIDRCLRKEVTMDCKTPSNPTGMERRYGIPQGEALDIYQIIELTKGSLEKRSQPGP
The note with it: previous studies; cited from earlier work.

For series [6] the following is noted: rodents; cited from earlier work.
Series [7] has as its system HIV-1. Kind of series: HIV cellular assays (HIV cell culture), antiviral potency.
Series [8] has as its system HIV-1. The note with it: week 48, with FTC/TDF or ABC/3TC; cited from earlier work.
A short description of series [9]: Biocompatibility study, subcutaneous implantation in mice. The note with it: mouse, in vivo, sc. On the procedure:
To examine tissue responses and in vivo degradation of these implants, unloaded 20% DO implants (P4) were used and examined histological sections and polymer properties over a period of 8 months after subcutaneous implantation. Implants of ˜10 to 15 mg were implanted in the subdermal layer of 16 mice. […] implants were extracted every two months; half of the implants were used for histological examination while the other half were used to characterize the polymer using GPC and NMR (FIGS. 15A and 15B). […] This decrease in Mw (73%) during the first four months is slightly less than observed in vitro degradation, where there was an 84% decrease in Mw after four months of incubation in PBS buffer at 37° C. […] This trend can likely be attributed to the highly degradable PDO polymeric segments of the copolymer. In terms of structural integrity of the implants, the implants appeared intact at 8 months and were firm enough to be picked up by tweezers without damage to the implant.

As to `C[C@@H]1C[C@H]2[C@@H]3CCC4=CC(=O)C=C[C@]4(C)[C@@]3(F)[C@@H](O)C[C@]2(C)[C@@]1(O)C(=O)CO` [DEX, dexamethasone], the “Diffusion Coefficient” value in series [1] is listed as 3.7 × 10^−9 cm^2/sec. Further, the “log P” value in series [2] is given as 1.6-1.9. In addition, the “diffusion coefficient in porous EVAc implants” value in series [3] (35% DEX loading) is recorded as 2.0×10^−10 cm^2/sec. The “diffusion coefficient in water” value in [3] (radiolabeled DEX in saline, 37° C.) is reported as 5.2×10^−6 cm^2/sec.

As to `C[C@@H]1CCO[C@H]2Cn3cc(C(=O)NCc4ccc(F)cc4F)c(=O)c(O)c3C(=O)N12` [DTG, dolutegravir], in [1], the “Diffusion Coefficient” value is reported as 1.7 × 10^−9 cm^2/sec. In addition, in [1] (28% loading, P4 implants), the “burst release rates compared to DEX” value is given as “three-fold reduction in burst release rates” and the “cumulative in vitro release compared to DEX from comparable implants” value was “slower cumulative release”.

With `C#C[C@]1(CO)O[C@@H](n2cnc3c(N)nc(F)nc32)C[C@@H]1O` [EFdA, 4′-Ethynyl-2-fluoro-2′-deoxyadenosine], in series [4] (NPs, day 14-post infection), the “increase in serum concentration” value was 21%. In series [4] (NPs, over the next three weeks), the “decline in serum concentration after day 21” value was “two-fold decline”. Besides, the clearance in series [4] (NPs, single i.p. dose, co-administered) stood at 1.2 mL/h/kg. In addition, the concentration at 42 d in [4] (NPs, read-out: plasma level maintained at end of experiment) was at least 4000 ng/mL; in [4] (NPs, read-out: plasma level maintained at end of experiment (molar)) it was at least 13 µM. For the same compound, the concentration at 56 d in [4] (subcutaneous, implants, day 56, read-out: sustained plasma concentration at end of experiment) was determined as 7500 ng/mL; in series [4] (subcutaneous, implants, day 56, read-out: sustained plasma concentration at end of experiment (molar)), 25 µM. The AUC(0-t) in [4] (ip, NPs, single i.p. dose, co-administered) came to 6980 µg·h/mL; in series [4] (subcutaneous, co-implanted poly(PDL-co-DO) implants, 56 d), 9130 µg·h/mL. Moreover, the “serum level fold higher than the cellular EC50” value in [4] (implants, day 14) was 11,000 fold. For the same compound, the “fold decrease in serum concentration compared to day 28” value in [4] (implants, day 35 post-implantation) is given as 5 fold. Further, the “plasma concentration fold above the EC90” value in series [4] (implants, day 56) is given as around 1600 fold. Further, the “substrate for human mitochondrial DNA polymerase” value in series [5] is given as “poor substrate”. Also, the “time of sustained levels of agent from implants” value in series [6] was “up to 6 months”. The EC50 with HIV-1 [7] (Human immunodeficiency virus 1, read-out: effective concentrations (EC50)) was determined as 1.9 nM. For the same compound, in the series on HIV-1 [7] (calculated from EC50 with Hill slope of 1), the “IC90 / EC90 in HIV cell culture” value was 17.1 nM.

Consider `Cn1c(Cn2ccc(C(F)(F)F)c(Oc3cc(Cl)cc(C#N)c3)c2=O)n[nH]c1=O` [doravirine], for which the “patients with plasma HIV-1 RNA of less than 50 copies/mL” value with HIV-1 [8] is on record as 84%.

As for “poly(ethylene brassylate-co-dioxanone) [poly(EB-co-DO) implants]”, the “tolerability after subcutaneous implantation” value in [9] was “well tolerated”.

A word on the AUC(0-t): it is exposure summed from dosing to a finite time, without extrapolation to infinity.
